Measured values from a melting point compilation (Tetko et al.; mined from patent text by program, amines drawn as free bases though some values may be those of a salt).

Row | Structure (SMILES) | melting point [°C]
1 | CCc1nc2c(c(C)c(C)n3nnnc23)n1CCOCCNS(C)(=O)=O | 216 to 218
2 | Cc1csc2nc(S(=O)(=O)Nc3cccc4sccc34)nn12 | 205 to 209
3 | CC1(C)COCC(C)(C)N1N=O | 47
4 | COc1ccc(Oc2cc(Oc3ccc(OC)cc3)c(S(N)(=O)=O)cc2C(=O)O)cc1 | 246 to 248
5 | O=C(NCc1ccc(Cl)cc1)c1cnc2sc(CCCO)cc2c1O | 185 to 186
6 | O=C(Nc1cccnc1)NC(NC(=O)c1ccc(Cl)cc1)C(Cl)(Cl)Cl (centres undefined) | 166 to 168
7 | FC(F)(F)c1cccc(C2=CCN(CCc3ccc(-c4ccccc4)cc3)CC2)c1 | 114 to 116
8 | CC(=O)OCC(O)(COC(C)=O)c1ccc(F)cc1F | 70.5 to 71.5
9 | CC(C)=NOCc1nc2c(N)nc3cccnc3c2n1CC(C)C | 173 to 175
10 | CCCCCCSc1nn2c(=O)c(Cl)c(F)nc2s1 | 105 to 111
11 | COc1ccc([C@@H]2O[C@@H](CC(=O)O)C(=O)N(CC(C)(C)C)c3ccc(Cl)cc32)c(OC)c1 | 233 to 234
12 | CCOC(=O)C(C)(C)Oc1ccc(-c2ccc(CCNC(=O)c3ccccc3C)cc2)cc1 | < 20
13 | CC(C)N1Cc2c(F)cccc2N(CCN2CC=C(c3c[nH]c4cc(F)ccc34)CC2)S1(=O)=O | 107 to 109
14 | CCOC(=O)C(Cc1ccc(-c2ccco2)cc1)NC(=O)C1(NC(=O)OC(C)(C)C)CCCC1 (centres undefined) | 107 to 112
15 | COC(=O)Nc1cccc2c1C(=O)c1c-2n[nH]c1-c1ccc(OC)cc1 | > 300
16 | Oc1cc(I)c(I)cc1O | 116
17 | [N-]=[N+]=C1C(=O)CC(c2ccccc2)CC1=O (centres undefined) | 122 to 124
18 | COc1cc(C(C)C)c2c(c1)S(=O)(=O)N(COc1cc(C#N)nn1-c1ccc(Cl)cc1Cl)C2=O | 183 to 184
19 | Cc1nc2cc3c(cc2[nH]1)C(C)(C)CC(=O)N3 | 290 to 294
20 | CC(C)N(c1ccc(C#N)cc1[N+](=O)[O-])S(=O)(=O)c1ccc(Cl)cc1 | 168
21 | COC(=O)c1cc2cc(OC)ccc2[nH]1 | 178 to 181

Row | Structure (SMILES) | melting point [°C]
22 | Cc1cc(CCCCOCCCCCCNCc2c(CO)ccc(O)c2CO)cc(C)c1N | 66 to 68
23 | CC(C)Oc1cc(CCCOc2cc(CCC(=O)O)n(-c3ccccc3)n2)cc(COc2ccc(Cl)cc2Cl)c1 | 104 to 106
24 | NCCc1nc(Cl)ccc1C(=O)O | 158 to 160
25 | O=C(O)c1ccc(OCCCCl)cc1 | 136 to 138
26 | CSc1nc(Cl)c(-c2c(F)cc(F)cc2F)c(N2CCCC(C)O2)n1 (centres undefined) | 110 to 111
27 | CC(=O)Nc1ccc(C(=O)O)c(OC(C)=O)c1 | 191 to 193
28 | CCCCCCCCOCC(O)COc1ccc(-n2nc3ccccc3n2)c(O)c1 (centres undefined) | 51 to 55
29 | COC(=O)c1ccc(Cn2nc(O)c3[nH]c4cc(Cl)ccc4c(=O)c3c2=O)cc1 | > 290
30 | CCN(CC)CCNc1ccc(NCCN(CC)CC)c2c1C(=O)c1ccccc1C2=O | 109
31 | COc1cc(/C=C/C(=O)O)ccc1OCc1sc(-c2ccc(C(F)(F)F)cc2)nc1C | 235 to 237
32 | Cc1cnc2c(C(N)=O)cnn2c1-c1cccc(C(F)(F)F)c1 | 237 to 239
33 | CCCCCCCCOc1c(OC)cc(N)c2ncccc12 | 63 to 64
34 | CCNC(=O)Nc1ccc(C(O)(C(F)(F)F)C(F)(F)F)cc1Br | 125 to 127
35 | CCOC(=O)NCCOc1ccc(Oc2cccc(Cl)c2)cc1 | 45 to 46
36 | COc1cc2cc3c(=O)nc[nH]c3nc2cc1OC | 311 to 312
37 | CCOC(=O)c1nn(-c2ccc(Cl)cc2Cl)c(-c2ccc(Br)cc2)c1CC | 108
38 | CCCNC(=O)C1C=C2CC=C(OC)C=C2N1CCNC(C)=O (centres undefined) | 127 to 128
39 | Cc1cc(Nc2ccc(F)cc2)nc(Nc2ccc(S(=O)(=O)N(C)C3CCN(Cc4nccs4)CC3)cc2)n1 | 220
40 | S=c1cc(-c2ccccc2)c(S)n[nH]1 | 146 to 148
41 | CCCCCCCCCCNC1=CC(=O)c2c(OC)ccc(OC)c2C1=O | 86 to 87
42 | CCOC(=O)C(C(=O)Nc1nccs1)C(=O)c1cccc(C(F)(F)F)c1NC(=O)C(Cl)C(C)C (centres undefined) | 160

Row | Structure (SMILES) | melting point [°C]
43 | CN(C)C(=O)Sc1ccc(CC#N)cc1 | 97 to 99
44 | N#Cc1cc(Cc2cccc(Cl)c2)ccc1N | 84.5 to 85.5
45 | CCn1c(=O)n(CCCCC(C)(O)CC)c(=O)c2c1ncn2Cc1ccccc1 (centres undefined) | 93 to 94
46 | COc1cc(-c2ccnc(-c3cn(C)c(=O)n3-c3ccc(C(C)(C)C#N)cc3)c2)ccn1 | 138
47 | CCOc1ccc2nc(N3CCN(c4nc(N)c5cc(OC)c(OC)cc5n4)CC3)nc-2cc1 | > 250
48 | Fc1ccc(Nc2ncnc(NN=Cc3ccc(OC(F)(F)F)cc3)n2)cc1C(F)(F)F | 185 to 186
49 | O=c1nc2c(c3ncnn13)=NC(c1ccccc1)=N2 | > 300
50 | CCN1CCc2sc3ncn(CCCl)c(=O)c3c2C1 | 94 to 96
51 | CC12CCCCC1CCC1C2CCC2(C)C(C(O)c3ccccc3)CCC12 (centres undefined) | 129 to 130
52 | CCCC(=O)C(=CNc1cscc1OC)C(=O)OCC | 89 to 91
53 | Nc1nc(COCc2ccccc2)nc2nccnc12 | 112 to 114
54 | COc1cccc(C23CCCC(C2)NC3=O)c1 (centres undefined) | 109 to 111
55 | CN(c1cc(=S)ss1)C1CCCCC1 | 107
56 | N#Cc1cnn(-c2ccc(Cl)nn2)c1N | 250 to 252
57 | COc1nc(C(F)(F)F)cc(=O)n1-c1cc(C(=O)OC(C)C)c(Cl)cc1F | 121 to 123
58 | CC(C)(C)OC(=O)Nc1ccc(CCO)cc1 | 104 to 105
59 | COc1ccc(CNn2c(=O)ccc3cnc(SC)nc32)cc1Cl | 189 to 190
60 | NC(=O)c1ccc(-c2ccc3nnn(Cc4ccc5ncccc5c4)c3n2)cc1 | 229 to 231
61 | CCOC(=O)C=Cc1cc(OC)ccc1-c1ccc(-c2ccc(OC)c(Cl)c2)c(C=O)c1 | 150 to 152
62 | CCC(C)n1ncn(-c2ccc(N3CCN(c4ccc(OCC(O)(Cn5cncn5)c5ccc(Cl)cc5Cl)cc4)CC3)nc2)c1=O (centres undefined) | 84 to 87

Other lines, results leading:

Row | melting point [°C] | Structure (SMILES)
63 | 97.2 | COCCNc1ccc(CN2CCN(C(c3ccccc3)c3ccccc3)CC2)cc1[N+](=O)[O-]
64 | 292 to 295 | COC(=O)c1ccc(C=C2CCn3c2nc2cc(N)ccc2c3=O)cc1
65 | 274 to 279 | Cc1ccccc1Cc1ccc(-c2cnn3c(O)ncnc23)cc1
66 | 102 to 103 | OCc1onc(-c2ccc(Cl)o2)c1-c1ccccc1
67 | 152 to 154 | Cc1cn(C(C)(C)C(=O)N(C)c2ccccc2)nc1-c1ccccc1
68 | > 300 | O=c1[nH]c(=O)n2c(c1-c1ccccc1)SCCC2
69 | 208 to 210 | Cc1c[nH]c(=O)n(Cc2ccccc2)c1=O
70 | 200 to 201 | COc1ccc2c(c1)cc(-c1ccccc1)n2-c1ccc(O)cc1
71 | 183 to 186 | Cn1cc(-c2cccc(C(F)(F)F)c2)c(=O)c(-c2ccc(F)cc2Cl)c1
72 | 125 to 127 | CCCC(=O)c1cnc2c(OCCO)cccc2c1Nc1ccccc1C
73 | 83 | O=C(c1ccc(F)cc1)C1CCN(CCCn2c(=O)sc3ccccc32)CC1
74 | 212 to 214 | CC(C)(O)c1ccc(-c2cnc3[nH]c(=O)n(CC4CCOCC4)c3n2)cc1
75 | 114 to 116 | O=C1COc2cc(S(=O)(=O)c3ccccc3)ccc2N1CC1=NCCN1
76 | 202 | CC1C(=O)N(c2ccc(S(N)(=O)=O)cc2Cl)CN1c1ccccc1 (centres undefined)
77 | 114 to 117 | Nc1ncc2c(n1)CCC(NC(=O)[C@@H]1CCCN1C(=O)[C@@H](CC1CCCCC1)NS(=O)(=O)Cc1ccccc1)C2 (some centres undefined)
78 | 134 | CCOC(=O)c1occ(-c2ccccc2)c(=O)c1Br
79 | 187 to 189 | COc1ccccc1NC(=O)NCc1cccc2c1CN(C1CCC(=O)NC1=O)C2=O (centres undefined)
80 | 243 | CN(C)CC(=O)Nc1cccc2c1C(=O)c1c-2n[nH]c1-c1ccc(N2CCNCC2)cc1
81 | 174 to 176 | O=[N+]([O-])CS(=O)c1cccc2c1oc1ccccc12 (centres undefined)

Row | melting point [°C] | Structure (SMILES)
82 | 151 to 153 | Cc1ccccc1-n1c(=O)c(N2CCNCC2)nc2ccccc21
83 | 86 to 87 | O=[N+]([O-])c1oc2ccc(-c3ccc(CCO)cc3)cc2c1-c1ccccc1
84 | 99 to 100 | CCOC(=O)CN1c2ccccc2N(C)C(=O)c2cccnc21
85 | 227 to 230 | COc1cc(NC(=S)NC(=O)/C=C/c2ccco2)ccc1-c1cc2ccccc2oc1=O
86 | 103 | c1ccc2c(c1)OCCc1c-2n(CCN2CCCCC2)c2ccccc12
87 | 183 to 184 | CC(C)(C)C(=O)Nc1ccccc1CC(O)c1ccccc1 (centres undefined)
88 | 159 to 160 | CCCc1c(C#N)ccc(NC(=NC#N)Nc2ccccc2Cl)c1O
89 | 112 to 119 | COc1ccc(C(=O)N2CCC(CCN3CCC(Nc4nc5ccccc5[nH]4)CC3)(c3ccccc3)C2)c(OC)c1OC (centres undefined)
90 | 125 to 130 | CCCCC1=Nc2ccccc2SN1Cc1ccc(-c2ccccc2C(=O)O)cc1
91 | 100 to 103 | COc1ccccc1-c1cccc2c1OC(COS(=O)(=O)c1ccc(C)cc1)C2 (centres undefined)
92 | 158 to 161 | CC(C)(C)OC(=O)CN1CC(c2ccco2)SCC(N2C(=O)c3ccccc3C2=O)C1=O (centres undefined)
93 | 207 to 209 | CCCOc1ccc(-c2ccc3c(c2)C=C(C(=O)Nc2ccc(CN(C)C4CCOCC4)cc2)CCN3C=O)cc1
94 | 200 to 202 | COc1ccc(-c2cnc(N3CCc4c([nH]c5ccccc45)C3c3ccc4c(c3)OCO4)nc2)cc1 (centres undefined)
95 | 100 to 102 | BrCCCNC(c1ccccc1)(c1ccccc1)c1ccccc1
96 | 104 to 108 | O=C(O)c1ccc(CCCC2SCC(=O)N2CCC2(O)CCCCC2)cc1Cl (centres undefined)
97 | 203 to 205 | C#CCN(Cc1ccc2nc(C)[nH]c(=O)c2c1)c1ccc(C(=O)NCC(OC(C)=O)c2ccccc2)cc1 (centres undefined)
98 | 252 to 253 | NC(=O)c1coc2c1C(=O)CC(c1ccccc1)C2 (centres undefined)
99 | 167 to 168 | COc1nc2oc(-c3ccccc3)nc2cc1C
